Experimental data: patent publication US10072017B2, “Compounds and methods for the treatment of cystic fibrosis” (Flatley Discovery Lab, LLC, priority 2015, dated 2018)

Molecular target: T1, CFTR (Homo sapiens, UniProt P13569, DEL508-508)
T1 construct: Primary CF airway epithelial cells were obtained from the UNC Cystic Fibrosis Tissue Procurement and Cell Culture Core; host or cells: primary CF airway epithelial cells
Assay: Equivalent current assay in Primary CF airway epithelial cells (NAUC)
Format: cell-based
Settings: 24 h, normalized to VX809 (3 μM) positive control; for Nauc @ 3 μM: 3 μM test compound; for Nauc @ 10 μM: 10 μM test compound
Method in brief: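 Primary CF airway epithelia differentiated ≥4 weeks at air-liquid interface, treated basolaterally 24 h at 37 °C with test compounds in combination with VX809, 0.1% DMSO vehicle. Equivalent current recorded after 5 μM benzamil, 10 μM forskolin plus 1 μM VX770, then CFTR-172/bumetanide 20 μM; vehicle-subtracted AUC normalized to 3 μM VX809 (NAUC), median of n≥4, sigmoid fit for EC50.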

T1 sequence (P13569 with tags, fused parts or gaps DEL508-508): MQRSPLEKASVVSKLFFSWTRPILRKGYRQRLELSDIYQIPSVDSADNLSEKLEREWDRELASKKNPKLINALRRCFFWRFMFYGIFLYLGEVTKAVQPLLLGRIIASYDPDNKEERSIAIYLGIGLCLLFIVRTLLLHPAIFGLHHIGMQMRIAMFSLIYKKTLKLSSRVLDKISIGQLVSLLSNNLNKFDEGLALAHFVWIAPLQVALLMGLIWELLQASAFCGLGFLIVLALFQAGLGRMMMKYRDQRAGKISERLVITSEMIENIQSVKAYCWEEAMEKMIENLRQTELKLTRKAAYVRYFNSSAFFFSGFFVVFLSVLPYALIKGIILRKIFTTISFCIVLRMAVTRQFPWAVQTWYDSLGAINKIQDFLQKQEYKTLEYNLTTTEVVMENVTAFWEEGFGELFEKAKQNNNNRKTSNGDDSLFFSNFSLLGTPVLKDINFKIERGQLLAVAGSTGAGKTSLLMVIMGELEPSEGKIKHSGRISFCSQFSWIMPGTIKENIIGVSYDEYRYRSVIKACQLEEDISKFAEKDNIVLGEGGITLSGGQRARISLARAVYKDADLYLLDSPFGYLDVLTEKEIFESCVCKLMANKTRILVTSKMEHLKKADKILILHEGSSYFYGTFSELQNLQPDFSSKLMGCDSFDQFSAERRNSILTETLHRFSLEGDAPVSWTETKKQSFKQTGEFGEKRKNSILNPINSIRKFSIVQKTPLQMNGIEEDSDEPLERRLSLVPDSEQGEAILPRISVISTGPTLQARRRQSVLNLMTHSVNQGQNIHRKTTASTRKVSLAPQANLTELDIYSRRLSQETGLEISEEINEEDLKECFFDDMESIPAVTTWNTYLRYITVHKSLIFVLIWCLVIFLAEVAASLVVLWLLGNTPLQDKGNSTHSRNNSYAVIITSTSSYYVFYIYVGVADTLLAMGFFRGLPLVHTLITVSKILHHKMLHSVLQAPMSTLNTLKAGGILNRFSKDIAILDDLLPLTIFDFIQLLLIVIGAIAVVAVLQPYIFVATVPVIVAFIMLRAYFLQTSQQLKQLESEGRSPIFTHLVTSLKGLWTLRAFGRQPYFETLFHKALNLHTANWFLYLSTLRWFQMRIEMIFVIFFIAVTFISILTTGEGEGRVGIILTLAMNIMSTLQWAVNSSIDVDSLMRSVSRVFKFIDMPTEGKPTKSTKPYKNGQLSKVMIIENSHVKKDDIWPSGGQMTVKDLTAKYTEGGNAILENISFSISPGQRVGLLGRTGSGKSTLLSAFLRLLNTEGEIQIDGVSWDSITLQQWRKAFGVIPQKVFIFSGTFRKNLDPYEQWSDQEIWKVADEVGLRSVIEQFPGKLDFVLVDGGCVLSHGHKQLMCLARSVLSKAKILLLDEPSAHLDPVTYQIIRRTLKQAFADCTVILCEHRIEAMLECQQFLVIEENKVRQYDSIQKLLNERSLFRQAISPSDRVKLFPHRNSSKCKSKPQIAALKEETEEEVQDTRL

SMILES | Nauc @ 3 μM | Nauc @ 10 μM
[2H]C12C(=O)N(c3cc(Cl)c(OC)c(Cl)c3)C(=O)C1([2H])C1(C(=O)Nc3c(Cl)cc(Cl)cc31)N1C[C@@H](Cl)CC12 (stereo partly drawn) [Example 148] | +++ (NAUC “+++” refers to an observed NAUC >170% of positive control) | +++ (NAUC “+++” refers to an observed NAUC >170% of positive control)
O=C1C2C3CC(F)(F)CN3C3(C(=O)Nc4c(Cl)cc(Cl)cc43)C2C(=O)N1c1cc(Cl)cc(Cl)c1 (stereo not drawn) [Example 53] | ++ (NAUC “++” refers to an observed NAUC 170-140% of positive control) | ++ (NAUC “++” refers to an observed NAUC 170-140% of positive control)
C[C@]1(O)CC2C3C(=O)N(c4nnn[nH]4)C(=O)C3C3(C(=O)Nc4c(Cl)cc(Cl)cc43)N2C1 (stereo partly drawn) [Example 8, (7′S)-5,7-Dichloro-7′-hydroxy-7′-methyl-2′-(1H-tetrazol-5-yl)-3a′,6′,7′,8′,8a′,8b′-hexahydro-1′H-spiro[indoline-3,4′-pyrrolo[3,4-a]pyrrolizine]-1′,2,3′(2′H)-trione] | +++ (NAUC “+++” refers to an observed NAUC >170% of positive control) | + (NAUC “+” refers to an observed NAUC <140% of positive control)
COc1c(Cl)cc(N2C(=O)C3C4C[C@H](F)CN4C4(C(=O)Nc5c(Cl)cc(Cl)cc54)C3C2=O)cc1Cl (single isomer, unassigned) [Example 118] | ++ (NAUC “++” refers to an observed NAUC 170-140% of positive control) | ++ (NAUC “++” refers to an observed NAUC 170-140% of positive control)
O=C1C2C3CCCN3C3(C(=O)Nc4c(Cl)cc(Cl)cc43)C2C(=O)N1c1cc(Cl)cc(Cl)n1 (single isomer, unassigned) [Example 67] | +++ (NAUC “+++” refers to an observed NAUC >170% of positive control) | +++ (NAUC “+++” refers to an observed NAUC >170% of positive control)
O=C1C2C3CC4(CC4)CN3C3(C(=O)Nc4c(Cl)cc(Cl)cc43)C2C(=O)N1c1cc(Cl)cc(Cl)n1 (single isomer, unassigned) [Example 219] | ++ (NAUC “++” refers to an observed NAUC 170-140% of positive control) | + (NAUC “+” refers to an observed NAUC <140% of positive control)
O=C1C2C3C[C@H](Cl)CN3C3(C(=O)Nc4c(Cl)cc(Cl)cc43)C2C(=O)N1c1cc(Cl)cc(Cl)c1 (stereo partly drawn) [Example 57] | +++ (NAUC “+++” refers to an observed NAUC >170% of positive control) | +++ (NAUC “+++” refers to an observed NAUC >170% of positive control)
COc1c(Cl)cc(N2C(=O)C3C4C[C@@](C)(F)CN4C4(C(=O)Nc5c(Cl)cc(Cl)cc54)C3C2=O)cc1Cl (single isomer, unassigned) [Example 162] | + (NAUC “+” refers to an observed NAUC <140% of positive control) | ++ (NAUC “++” refers to an observed NAUC 170-140% of positive control)
O=C1C2C3CC(C(F)(F)F)CN3C3(C(=O)Nc4c(Cl)cc(Cl)cc43)C2C(=O)N1c1cc(Cl)cc(Cl)c1 (stereo not drawn) [Example 215] | +++ (NAUC “+++” refers to an observed NAUC >170% of positive control) | ++ (NAUC “++” refers to an observed NAUC 170-140% of positive control)
Cc1ccc2c(c1)C1(C(=O)N2)C2C(=O)N(c3cc(Cl)cc(Cl)c3)C(=O)C2C2CCCN21 (stereo not drawn) [Example 47] | ++ (NAUC “++” refers to an observed NAUC 170-140% of positive control) | ++ (NAUC “++” refers to an observed NAUC 170-140% of positive control)
CC1(C)CC2C3C(=O)N(c4cc(Cl)cc(Cl)c4)C(=O)C3C3(C(=O)Nc4c(Cl)cc(Cl)cc43)N2C1 (single isomer, unassigned) [Example 120] | +++ (NAUC “+++” refers to an observed NAUC >170% of positive control) | + (NAUC “+” refers to an observed NAUC <140% of positive control)
O=C1C2C3C[C@H](NS(=O)(=O)c4ccccc4)CN3C3(C(=O)Nc4c(Cl)cc(Cl)cc43)C2C(=O)N1c1cc(Cl)cc(Cl)c1 (single isomer, unassigned) [Example 58] | ++ (NAUC “++” refers to an observed NAUC 170-140% of positive control) | +++ (NAUC “+++” refers to an observed NAUC >170% of positive control)
O=C1C2C(Cc3ccccc3O)NC3(C(=O)Nc4c(Cl)cc(Cl)cc43)C2C(=O)N1c1cc(Cl)cc(Cl)c1 (stereo not drawn) [Example 188] | + (NAUC “+” refers to an observed NAUC <140% of positive control) | +++ (NAUC “+++” refers to an observed NAUC >170% of positive control)
O=C1C2C3CCCN3C3(C(=O)Nc4c(Cl)cc(Cl)cc43)C2C(=O)N1c1cc(Cl)nc(Cl)c1 (stereo not drawn) [Example 33] | ++ (NAUC “++” refers to an observed NAUC 170-140% of positive control) | +++ (NAUC “+++” refers to an observed NAUC >170% of positive control)
O=C1C2C3CC4(CC4)CN3C3(C(=O)Nc4c(Cl)cc(Cl)cc43)C2C(=O)N1c1cc(Cl)cc(Cl)c1 (single isomer, unassigned) [Example 191] | +++ (NAUC “+++” refers to an observed NAUC >170% of positive control) | +++ (NAUC “+++” refers to an observed NAUC >170% of positive control)
O=C1C2C3CC(=C(F)F)CN3C3(C(=O)Nc4c(Cl)cc(Cl)cc43)C2C(=O)N1c1cccc(C(F)(F)F)c1 (stereo not drawn) [Example 126] | +++ (NAUC “+++” refers to an observed NAUC >170% of positive control) | +++ (NAUC “+++” refers to an observed NAUC >170% of positive control)
CC(=O)Oc1c(Cl)cc(Cl)cc1N1C(=O)C2C3C[C@H](O)CN3C3(C(=O)Nc4c(Cl)cc(Cl)cc43)C2C1=O (stereo partly drawn) [Example 91] | + (NAUC “+” refers to an observed NAUC <140% of positive control) | +++ (NAUC “+++” refers to an observed NAUC >170% of positive control)
O=C1C2C(Cc3ccccc3Cl)NC3(C(=O)Nc4c(Cl)cc(Cl)cc43)C2C(=O)N1c1cc(Cl)cc(Cl)c1 (stereo not drawn) [Example 190] | +++ (NAUC “+++” refers to an observed NAUC >170% of positive control) | +++ (NAUC “+++” refers to an observed NAUC >170% of positive control)
CC1(C)CC2C3C(=O)N(c4cc(Cl)cc(Cl)n4)C(=O)C3C3(C(=O)Nc4c(Cl)cc(Cl)cc43)N2C1 (stereo not drawn) [Example 129] | ++ (NAUC “++” refers to an observed NAUC 170-140% of positive control) | ++ (NAUC “++” refers to an observed NAUC 170-140% of positive control)
O=C1C2C3C[C@H](O)CN3C3(C(=O)Nc4c(Cl)cc(Cl)cc43)C2C(=O)N1c1cc(C(F)(F)F)cc(C(F)(F)F)c1 (stereo partly drawn) [Example 43] | ++ (NAUC “++” refers to an observed NAUC 170-140% of positive control) | +++ (NAUC “+++” refers to an observed NAUC >170% of positive control)
COc1cc(Cl)cc(N2C(=O)C3C4CCCN4C4(C(=O)Nc5c(Cl)cc(Cl)cc54)C3C2=O)c1 (single isomer, unassigned) [Example 106] | +++ (NAUC “+++” refers to an observed NAUC >170% of positive control) | +++ (NAUC “+++” refers to an observed NAUC >170% of positive control)
O=C1C2C3CC(=C(F)F)CN3C3(C(=O)Nc4c(Cl)cc(Cl)cc43)C2C(=O)N1c1cc(Cl)cc(Cl)c1 (stereo not drawn) [Example 100] | +++ (NAUC “+++” refers to an observed NAUC >170% of positive control) | +++ (NAUC “+++” refers to an observed NAUC >170% of positive control)
O=C1C2C3C[C@H](Cl)CN3C3(C(=O)Nc4c(Cl)cc(Cl)cc43)C2C(=O)N1c1cc(Cl)cc(Cl)c1O (stereo partly drawn) [Example 96] | ++ (NAUC “++” refers to an observed NAUC 170-140% of positive control) | + (NAUC “+” refers to an observed NAUC <140% of positive control)
O=C1C2C3CC(=C(F)F)CN3C3(C(=O)Nc4c(Cl)cc(Cl)cc43)C2C(=O)N1c1cc(Cl)cc(Cl)n1 (stereo not drawn) [Example 122] | +++ (NAUC “+++” refers to an observed NAUC >170% of positive control) | + (NAUC “+” refers to an observed NAUC <140% of positive control)
Cc1cnc(CC2NC3(C(=O)Nc4c(Cl)cc(Cl)cc43)C3C(=O)N(c4cc(Cl)cc(Cl)c4)C(=O)C23)cn1 (stereo not drawn) [Example 252] | ++ (NAUC “++” refers to an observed NAUC 170-140% of positive control) | ++ (NAUC “++” refers to an observed NAUC 170-140% of positive control)
C[C@]1(F)CC2C3C(=O)N(c4cc(Cl)cc(Cl)c4)C(=O)C3C3(C(=O)Nc4c(Cl)cc(Cl)cc43)N2C1 (stereo partly drawn) [Example 10, (7′S)-5,7-dichloro-2′-(3,5-dichlorophenyl)-7′-fluoro-7′-methyl-3a′,6′,7′,8′,8a′,8b′-hexahydro-1′H-spiro[indoline-3,4′-pyrrolo[3,4-a]pyrrolizine]-1′,2,3′(2′H)-trione] | +++ (NAUC “+++” refers to an observed NAUC >170% of positive control) | +++ (NAUC “+++” refers to an observed NAUC >170% of positive control)
O=C1C2C(C3CCCCC3)NC3(C(=O)Nc4c(Cl)cc(Cl)cc43)C2C(=O)N1c1cc(Cl)cc(Cl)c1 (stereo not drawn) [Example 208] | ++ (NAUC “++” refers to an observed NAUC 170-140% of positive control) | + (NAUC “+” refers to an observed NAUC <140% of positive control)
